{"source": "patent US9949976B2", "about": "“Kinase inhibitor and use thereof” (Sihuan Pharmaceutical Holdings Group Ltd., priority 2013, dated 2018)", "key": {"[1]": {"assay": "Linear pharmacokinetics in rat (PO)", "assay_type": "in vivo, male SD rat", "conditions": "for AUC(0-t) / Cmax / Tmax: male, SD, plasma", "description": "Test animal: male SD rat, 3 rats/administration dose/test compound, weight: 200-240 g/rat.\n100 μL whole blood was collected from caudal vein at each time point, added to an anticoagulation tube containing K2EDTA, and centrifuged at 8000 r/min in a high speed centrifuge for 6 min to separate the plasma; the plasma was stored in a refrigerator at −80° C.\nThe plasma samples of control agent and compound 1 were analyzed by precipitation of protein: to 30 μL plasma, 200 μL internal standard (acetonitrile solution containing 50 ng/mL PD0332991, the formula of which is\n[drawing 62] prepared by referring to the method in Patent CN101001857A) was added; the resultant mixture was vortexed for 10 min at 1500 r/min, and centrifuged for 20 min at 4000 r/min; to 100 μL supernatant, 100 μL water was added; the resultant mixture was mixed homogeneously under vortexing and analyzed by LC-MS/MS."}, "[2]": {"assay": "PK in Colo-205 subcutaneous tumor model of BALB/c nude mouse", "assay_type": "in vivo", "conditions": "female, plasma, Colo-205 tumor-bearing nude mouse, PO QD 22 days, after last administration", "description": "Test animal: female nude mouse (BALB/c), 8 mice/dose group/test compound, weight: 19-27 g/mouse.\nCOLO205 cancer cells were cultured in RPMI-1640 medium containing inactivated 10% fetal bovine serum, 100 U/mL penicillin, 100 μg/mL streptomycin and 2 mM glutamine, in a 37° C., 5% CO2 incubator. The initial concentration of cell culture was 5×10^5 cells/mL, and the cells were transferred to other bottles every 3 or 4 days and passaged. Tumor cells in exponential growth phase were used for in vivo tumor seeding.\nCOLO205 tumor cells suspended in PBS were seeded subcutaneously to right lateral thorax of experimental animal at 1×10^7 cells/0.1 mL, and the animal was sacrificed when the tumor grew to a volume of 800 mm^3 to 1000 mm^3; under aseptic conditions, tumors were peeled off, and necrotic tissues were removed; the well-grown tumor tissues were selected; the tumor cells were isolated and subjected to primary culture and proliferation, and then were subcutaneously seeded to animal. The tumor cells were passaged for two generations in mice by this method, and the primary culture cells were seeded subcutaneously to right lateral thorax of experimental animal, at 5×10^6 cells/0.1 mL per animal. When tumor grew to a volume of about 100 mm^3, the animals were grouped and administered. For oral administration, the administration volume is 0.1 mL/10 g body weight of animal.\nBlood collection: blood was collected from intraocular canthus. After the last administration (22th Day) of control agent and compound 1, blood/tumor was collected at the same time points, wherein 8 nude mice for each dose group were divided into A and B groups\nA group (No. 1-4): blood was collected at 15 min, 1 h and 2 h, and the mouse was sacrificed after blood collection at 2 h;\nB group (No. 5-8): blood was collected at 4 h, 8 h and 24 h, and the mouse was sacrificed after blood collection at 24 h;\n100 μL whole blood at each time point was collected and added to an anticoagulation tube containing K2EDTA, and centrifuged at 4500 r/min at 4° C. in a high speed centrifuge for 5 min to separate the plasma; the plasma was stored in a refrigerator at −80° C.\nThe plasma samples of control agent and compound 1 were analyzed by precipitation of protein: to 50 μL plasma, 150 μL internal standard (acetonitrile solution containing 50 ng/mL dexamethasone) was added; the resultant mixture was vortexed at 1500 r/min for 3 min, and centrifuged at 4000 r/min for 20 min; to 100 μL supernatant, 100 μL water was added; the resultant mixture was mixed homogeneously under vortexing and analyzed by LC-MS/MS."}, "[3]": {"assay": "Pharmacokinetics in nude mouse (IV and PO)", "assay_type": "in vivo", "conditions": "female, BALB/c nude, plasma; for Vd: read-out: Vss; for bioavailability: read-out: F (absolute bioavailability)", "description": "Test animal: female nude mouse (BALB/c); control agent: 3 mice/administration route at each time point, weight: 22-25 g/mouse; Compound 1: 3 mice/administration route at each time point, weight: 22-25 g/mouse; Compound 6-1: 6 mice/administration route/test compound, weight: 18-26 g/mouse.\nControl agent/Compound 1, IV administration group: before administration, 0.083, 0.25, 0.5, 1, 2, 4, 6, 8, 24, and 30 h after administration; PO administration group (10 mg/kg): before administration, 0.167, 0.5, 1, 2, 4, 6, 8, 24, and 30 h after administration.\nCompound 1, PO administration group (100 mg/kg): 0.167, 0.5, 1, 2, 4, 6, 8, 24, 30, and 48 h after administration.\nCompound 6-1, IV administration group (2.5 mg/kg) and PO administration group (10 mg/kg): 0.083, 0.25, 0.5, 1, 2, 4, 6, 8 and 24 h after administration; Compound 6-1, PO administration group (100 mg/kg): 0.083, 0.25, 0.5, 1, 2, 4, 6, 8, 24, 30, 48 h after administration.\nControl agent/Compound 1: 300 μL whole blood was collected from intraocular canthus at each time point, and was centrifuged at 8000 r/min for 6 min in a high speed centrifuge to separate the plasma; the plasma was stored in a refrigerator at −80° C. Compound 6-1: 60 μL whole blood was collected from intraocular canthus at each time point, and was placed in an anticoagulation tube containing anticoagulant agent K2EDTA; the blood sample was centrifuged at 8000 r/min for 6 min to obtain a plasma sample.\nThe plasma samples of control agent and compound 1 were analyzed by precipitation of protein: to 50 μL plasma, 200 μL internal standard (acetonitrile solution containing 500 ng/mL Warfarin) was added; the resultant mixture was vortexed for 3 min at 1500 r/min, and centrifuged for 5 min at 13000 r/min; to 100 μL supernatant, 400 μL water was added; the resultant mixture was mixed homogeneously under vortexing and analyzed by LC-MS/MS.\nThe plasma sample of compound 6-1 was analyzed by precipitation of protein: to a suitable amount of plasma, a given volume of internal standard solution was added; the resultant mixture was vortexed and centrifuged; the supernatant was diluted by adding a given volume of water; the resultant mixture was mixed homogeneously under vortexing and analyzed by LC-MS/MS."}}, "note": "Read-outs that look alike come from different tables or passages of the source.", "data": [{"smiles": "CCN1CCN(Cc2cnc(Nc3cc(-c4cc(F)c5nc(C)n(C(C)C)c5c4)c(F)cn3)nc2)CC1", "note": "[Compound 1, 5-((4-ethylpiperazin-1-yl)methyl)-N-(5-fluoro-4-(4-fluoro-1-isopropyl-2-methyl-1H-benzo[d]imidazol-6-yl)pyridin-2-yl)pyrimidin-2-amine]", "values": [{"measurement": "linear pharmacokinetic properties", "setting": "[1]; 15-135 mg/kg, AUClast increases with dose in a linear manner", "result": "good linear pharmacokinetic properties"}, {"measurement": "AUC(0-t)", "setting": "[1]; 15 mg/kg", "result": 12600, "unit": "ng·h/mL"}, {"measurement": "Cmax", "setting": "[1]; 15 mg/kg", "result": 941, "unit": "ng/mL"}, {"measurement": "Tmax", "setting": "[1]; 15 mg/kg", "result": 4, "unit": "h"}, {"measurement": "AUC(0-t)", "setting": "[1]; 45 mg/kg", "result": 37700, "unit": "ng·h/mL"}, {"measurement": "Cmax", "setting": "[1]; 45 mg/kg", "result": 1580, "unit": "ng/mL"}, {"measurement": "Tmax", "setting": "[1]; 45 mg/kg", "result": 4, "unit": "h"}, {"measurement": "AUC(0-t)", "setting": "[1]; 135 mg/kg", "result": 136000, "unit": "ng·h/mL"}, {"measurement": "Cmax", "setting": "[1]; 135 mg/kg", "result": 2410, "unit": "ng/mL"}, {"measurement": "Tmax", "setting": "[1]; 135 mg/kg", "result": 24, "unit": "h"}, {"measurement": "AUC(0-t)", "setting": "[2]; 25 mg/kg", "result": 12300, "unit": "ng·h/mL"}, {"measurement": "Cmax", "setting": "[2]; 25 mg/kg", "result": 1140, "unit": "ng/mL"}, {"measurement": "Tmax", "setting": "[2]; 25 mg/kg", "result": 2, "unit": "h"}, {"measurement": "AUC(0-t)", "setting": "[2]; 100 mg/kg", "result": 48300, "unit": "ng·h/mL"}, {"measurement": "Cmax", "setting": "[2]; 100 mg/kg", "result": 2420, "unit": "ng/mL"}, {"measurement": "Tmax", "setting": "[2]; 100 mg/kg", "result": 8, "unit": "h"}, {"measurement": "AUC(0-t)", "setting": "[3]; IV, 5 mg/kg", "result": 2080, "unit": "ng·h/mL"}, {"measurement": "clearance", "setting": "[3]; IV, 5 mg/kg", "result": 38.2, "unit": "mL/min/kg"}, {"measurement": "Vd", "setting": "[3]; IV, 5 mg/kg", "result": 4.61, "unit": "L/kg"}, {"measurement": "AUC(0-t)", "setting": "[3]; PO, 10 mg/kg", "result": 2760, "unit": "ng·h/mL"}, {"measurement": "Cmax", "setting": "[3]; PO, 10 mg/kg", "result": 675, "unit": "ng/mL"}, {"measurement": "Tmax", "setting": "[3]; PO, 10 mg/kg", "result": 2, "unit": "h"}, {"measurement": "bioavailability", "setting": "[3]; PO, 10 mg/kg", "result": 65.5, "unit": "%"}, {"measurement": "AUC(0-t)", "setting": "[3]; PO, 100 mg/kg", "result": 33900, "unit": "ng·h/mL"}, {"measurement": "Cmax", "setting": "[3]; PO, 100 mg/kg", "result": 3080, "unit": "ng/mL"}, {"measurement": "Tmax", "setting": "[3]; PO, 100 mg/kg", "result": 2, "unit": "h"}, {"measurement": "bioavailability", "setting": "[3]; PO, 100 mg/kg", "result": 77.9, "unit": "%"}]}, {"smiles": "CCN1CCN(Cc2ccc(Nc3ncc(F)c(-c4cc(F)c5nc(C)n(C(C)C)c5c4)n3)nc2)CC1", "note": "[LY2835219, reference compound]", "values": [{"measurement": "AUC(0-t)", "setting": "[1]; 15 mg/kg", "result": 9690, "unit": "ng·h/mL"}, {"measurement": "Cmax", "setting": "[1]; 15 mg/kg", "result": 504, "unit": "ng/mL"}, {"measurement": "Tmax", "setting": "[1]; 15 mg/kg", "result": 4, "unit": "h"}, {"measurement": "AUC(0-t)", "setting": "[1]; 45 mg/kg", "result": 32600, "unit": "ng·h/mL"}, {"measurement": "Cmax", "setting": "[1]; 45 mg/kg", "result": 860, "unit": "ng/mL"}, {"measurement": "Tmax", "setting": "[1]; 45 mg/kg", "result": 4, "unit": "h"}, {"measurement": "AUC(0-t)", "setting": "[1]; 135 mg/kg", "result": 97600, "unit": "ng·h/mL"}, {"measurement": "Cmax", "setting": "[1]; 135 mg/kg", "result": 1370, "unit": "ng/mL"}, {"measurement": "Tmax", "setting": "[1]; 135 mg/kg", "result": 24, "unit": "h"}, {"measurement": "AUC(0-t)", "setting": "[2]; 25 mg/kg", "result": 9120, "unit": "ng·h/mL"}, {"measurement": "Cmax", "setting": "[2]; 25 mg/kg", "result": 733, "unit": "ng/mL"}, {"measurement": "Tmax", "setting": "[2]; 25 mg/kg", "result": 4, "unit": "h"}, {"measurement": "AUC(0-t)", "setting": "[2]; 100 mg/kg", "result": 23000, "unit": "ng·h/mL"}, {"measurement": "Cmax", "setting": "[2]; 100 mg/kg", "result": 1080, "unit": "ng/mL"}, {"measurement": "Tmax", "setting": "[2]; 100 mg/kg", "result": 8, "unit": "h"}, {"measurement": "AUC(0-t)", "setting": "[3]; IV, 5 mg/kg", "result": 1590, "unit": "ng·h/mL"}, {"measurement": "clearance", "setting": "[3]; IV, 5 mg/kg", "result": 50.2, "unit": "mL/min/kg"}, {"measurement": "Vd", "setting": "[3]; IV, 5 mg/kg", "result": 5.79, "unit": "L/kg"}, {"measurement": "AUC(0-t)", "setting": "[3]; PO, 10 mg/kg", "result": 1310, "unit": "ng·h/mL"}, {"measurement": "Cmax", "setting": "[3]; PO, 10 mg/kg", "result": 368, "unit": "ng/mL"}, {"measurement": "Tmax", "setting": "[3]; PO, 10 mg/kg", "result": 0.5, "unit": "h"}, {"measurement": "bioavailability", "setting": "[3]; PO, 10 mg/kg", "result": 41.1, "unit": "%"}]}]}
